Data reported in patent US20110256115A1, “HYDROSOLUBLE [6)O-ALPHA-D-GLCP-(1->]N-6-O-BETA-D-GLCP-(1->-PHENOLIC DERIVATIVES WITH DERMOCOSMETIC, NUTRITIONAL AND THERAPEUTIC APPLICATIONS, AND COMPOSITIONS CONTAINING SAID WATER SOLUBLE COMPOUNDS” (Libragen, priority 2008, published 2011).
“And” between values parts separate entries of the source, which are not always exact repeats. Identical values can stand only once.

Experiment: Compared solubility in water
Format: physicochemical
Details: for B = solubility in water of O-β-D-Glcp-(1→-phenolic compound) / solubility: water saturated solution; for B = solubility in water of O-β-D-Glcp-(1→-phenolic compound) / solubility / A = solubility in water of [6)-O-α-D-Glcp-(1→]1-6-O-β-D-Glcp-(1→-phenolic compound: pH 4.0 to 5.0, no buffer added, 25° C.; for solubility: thermodynamic from solid, read-out: B = solubility in water of O-β-D-Glcp-(1→-phenolic compound); for % of solubility increase = (A − B)/B × 100: versus corresponding O-β-D-Glcp-(1→-phenolic compound); for A = solubility in water of [6)-O-α-D-Glcp-(1→]1-6-O-β-D-Glcp-(1→-phenolic compound: minimal solubility from concentrated syrup
Source text: The phenolic compounds derivatives of the present invention have an improved solubility in water of at least 50% to 5000% as compared to the corresponding 0-β-D-Glcp-(14)-phenolic compound in the same physiological conditions, more preferably at least 50%, 100%, 200%, 400%, 800%, 1000%, 2000%, 3000%, 4000% or 5000%. Solubility of a phenolic compound derivative can be estimated by preparing a saturated water solution of said phenolic compound derivative. Excess solid form of phenolic compound derivative is eliminated by high speed centrifugation and concentration of compound A in the supernatant is estimated by HPLC using appropriate references (see above §‘Prepation of derivative’ for HPLC conditions example). Solubility difference is calculated with formula: […]
For this purpose, these [6)-O-α-D-Glcp-(1→]n-6-O-β-D-Glcp-(1→-phenolic derivatives have been prepared as described in example 1, and concentrated as described in EP2007/055815. The resulting concentrated syrup obtained after purification of these [6)-O-α-D-Glcp-(1→]1-6-O-β-D-Glcp-(1→-phenolic derivatives has been diluted and analyzed by HPLC to estimate the content of soluble [6)-O-α-D-Glcp-(1→]1-6-O-β-D-Glcp-(1→-phenolic derivatives.
In parallel, an excess amount of each corresponding β-D-Glcp-(1→-phenolic derivatives has been diluted in water to enable the preparation of water saturated solutions of these compounds. After high speed centrifugation to remove the excess of solid material, the supernatant of these saturated solutions has been analyzed by HPLC to estimate the content of soluble O-β-D-Glcp-(1→-phenolic derivatives.
Nota: One should notice that solubility of the [6)-O-α-D-Glcp-(1→]1-6-O-(3-D-Glcp-(1→-phenolic derivatives is considered as a minimal solubility as concentration of the initial syrups have not been tested.

Row | Compound | B = solubility in water of O-β-D-Glcp-(1→-phenolic compound) | solubility | % of solubility increase = (A − B)/B × 100 (In g/L) | % of solubility increase = (A − B)/B × 100 (In mM) | A = solubility in water of [6)-O-α-D-Glcp-(1→]1-6-O-β-D-Glcp-(1→-phenolic compound
1 | COc1ccc(/C=C/c2cc(O)cc(O[C@@H]3O[C@H](CO)[C@@H](O)[C@H](O)[C@H]3O)c2)cc1 [Deoxyrhapontin, 3,5-dihydroxy-4′-methoxystilbene-3-O-β-D-glucopyranoside, reference compound] | 0.3 g/L and 0.7 mM | – | – | – | –
2 | OC[C@H]1O[C@@H](Oc2cc(O)cc(C=Cc3ccc(O)cc3)c2)[C@H](O)[C@@H](O)[C@@H]1O [O-β-D-Glcp-(1→-resveratrol, Resveratrol-3-O-β-D-glucopyranoside, reference compound] | – | 1200 µg/mL and 3100 µM | – | – | –
3 | O=C(CCc1ccc(O)cc1)c1c(O)cc(O)cc1O[C@@H]1O[C@H](CO)[C@@H](O)[C@H](O)[C@H]1O [Phloridzin, Phloretin-2′-O-β-D-glucopyranoside, reference compound] | – | 1100 µg/mL and 2500 µM | – | – | –
4 | COc1ccc(C=Cc2cc(O)cc(O[C@@H]3O[C@H](CO)[C@@H](O)[C@H](O)[C@H]3O)c2)cc1O [Rhapontin, 4′-methoxy-3,3′,5-stilbenetriol-3-O-β-D-glucopyranoside, reference compound] | – | 300 µg/mL and 700 µM | – | – | –
5 | O=C(CCc1ccc(O)cc1)c1c(O)cc(O)cc1O[C@@H]1O[C@H](CO[C@H]2O[C@H](CO)[C@@H](O)[C@H](O)[C@H]2O)[C@@H](O)[C@H](O)[C@H]1O [[6)-O-α-D-Glcp-(1→]1-6-O^2′-β-D-Glcp-(1→-phloretin] | – | – | Higher than 4750% | Higher than 3450% | > 53.3 g/L and > 89.1 mM
6 | COc1ccc(C=Cc2cc(O)cc(O[C@@H]3O[C@H](CO[C@H]4O[C@H](CO)[C@@H](O)[C@H](O)[C@H]4O)[C@@H](O)[C@H](O)[C@H]3O)c2)cc1 [[6)-O-α-D-Glcp-(1→]1-6-O^3-β-D-Glcp-(1→-3,5-dihydroxy-4′-methoxystilbene] | – | – | Higher than 2700% | Higher than 2000% | > 8.5 g/L and > 15.0 mM
7 | COc1ccc(C=Cc2cc(O)cc(O[C@@H]3O[C@H](CO[C@H]4O[C@H](CO)[C@@H](O)[C@H](O)[C@H]4O)[C@@H](O)[C@H](O)[C@H]3O)c2)cc1O [[6)-O-α-D-Glcp-(1→]1-6-O^3-β-D-Glcp-(1→-4′-methoxy-3,3′,5-stilbenetriol] | – | – | Higher than 5400% | Higher than 3950% | > 16.6 g/L and > 28.5 mM
8 | OC[C@H]1O[C@H](OC[C@H]2O[C@@H](Oc3cc(O)cc(/C=C/c4ccc(O)cc4)c3)[C@H](O)[C@@H](O)[C@@H]2O)[C@H](O)[C@@H](O)[C@@H]1O [[6)-O-α-D-Glcp-(1→]1-6-O^3-β-D-Glcp-(1→-resveratrol] | – | – | Higher than 5300% | Higher than 3650% | > 65.0 g/L and > 117.6 mM
9 | O=c1ccc2cc(O[C@@H]3O[C@H](CO[C@H]4O[C@H](CO)[C@@H](O)[C@H](O)[C@H]4O)[C@@H](O)[C@H](O)[C@H]3O)c(O)cc2o1 [[6)-O-α-D-Glcp-(1→]1-6-O^6-β-D-Glcp-(1→-esculetin] | – | – | Higher than 850% | Higher than 550% | > 12.5 g/L and > 24.9 mM
10 | Esculetin-6-O-β-D-glucopyranoside [Esculin, reference compound] | 1.3 g/L and 3.8 mM | – | – | – | –
